{
  "source": "patent US8952024B2",
  "about": "“Herbicidal pyrimidone derivatives” (E I du Pont de Nemours and Company, priority 2009, dated 2015)",
  "assay_type_in_all_cases": "in vivo",
  "key": {"[1]": {"test_system": "cocklebur (Xanthium strumarium)", "experiment": "Test B pre-/postemergence plant response", "in_short": "(§1)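 Response scores were assigned visually after 13 to 15 days in a greenhouse, comparing treated pots with controls on a 0–100 scale where 100 denotes complete control. Preemergence treatments went onto freshly seeded loam/sand soil; postemergence treatments onto plants 2 to 18 cm tall.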"}, "wild oat (Avena fatua)": {"test_system": "wild oat (Avena fatua)", "experiment": "Test B pre-/postemergence plant response", "in_short": "as §1"}, "[2]": {"test_system": "blackgrass (Alopecurus myosuroides)", "experiment": "Test B pre-/postemergence plant response", "in_short": "as §1"}, "[3]": {"test_system": "johnsongrass (Sorghum halepense)", "experiment": "Test B pre-/postemergence plant response", "in_short": "as §1"}, "kochia (Kochia scoparia)": {"test_system": "kochia (Kochia scoparia)", "experiment": "Test B pre-/postemergence plant response", "in_short": "as §1"}, "[4]": {"test_system": "yellow nutsedge (Cyperus esculentus)", "experiment": "Test B pre-/postemergence plant response", "in_short": "as §1"}, "[5]": {"test_system": "ragweed (common ragweed, Ambrosia elatior)", "experiment": "Test B pre-/postemergence plant response", "conditions": "for Plant response rating, Ragweed: Postemergence, scale 0 to 100 (0 no effect, 100 complete control)", "in_short": "as §1"}, "[6]": {"test_system": "downy bromegrass (Bromus tectorum)", "experiment": "Test B pre-/postemergence plant response", "in_short": "as §1"}, "[7]": {"test_system": "morningglory (Ipomoea coccinea)", "experiment": "Test B pre-/postemergence plant response", "in_short": "as §1"}, "[8]": {"test_system": "wheat (Triticum aestivum)", "experiment": "Test B pre-/postemergence plant response", "in_short": "as §1"}, "[9]": {"test_system": "bermudagrass (Cynodon dactylon)", "experiment": "Test B pre-/postemergence plant response", "in_short": "as §1"}, "[10]": {"test_system": "giant foxtail (Setaria faberii)", "experiment": "Test B pre-/postemergence plant response", "in_short": "as §1"}, "[11]": {"test_system": "velvetleaf (Abutilon theophrasti)", "experiment": "Test B pre-/postemergence plant response", "conditions": "for Plant response rating, Velvetleaf: Postemergence, scale 0 to 100 (0 no effect, 100 complete control)", "in_short": "as §1"}, "soybean (Glycine max)": {"test_system": "soybean (Glycine max)", "experiment": "Test B pre-/postemergence plant response", "conditions": "for Plant response rating, Soybean: Postemergence, scale 0 to 100 (0 no effect, 100 complete control)", "in_short": "as §1"}, "[12]": {"test_system": "green foxtail (Setaria viridis)", "experiment": "Test B pre-/postemergence plant response", "in_short": "as §1"}, "[13]": {"test_system": "chickweed (Stellaria media)", "experiment": "Test B postemergence plant response", "in_short": "(§2)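 Visual ratings from 0 (no effect) to 100 (complete control), made against controls 13–15 days after treatment, kept in a greenhouse. Compounds were applied postemergence to potted plants at the 1- to 4-leaf stage (2–18 cm).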"}, "[14]": {"test_system": "windgrass (Apera spica-venti)", "experiment": "Test B postemergence plant response", "in_short": "as §2"}, "[15]": {"test_system": "canarygrass (Phalaris minor)", "experiment": "Test B postemergence plant response", "in_short": "as §2"}, "[16]": {"conditions": "31 g ai/ha, postemergence, scale 0 to 100, 0 is no effect, 100 is complete control"}, "[17]": {"conditions": "62 g ai/ha, postemergence, 0 is no effect, 100 is complete control, 13 to 15 days"}, "[18]": {"conditions": "Postemergence, 125 g ai/ha, scale 0 to 100 (0 no effect, 100 complete control)"}, "[19]": {"conditions": "Postemergence, 250 g ai/ha, scale 0 to 100 (0 no effect, 100 complete control)"}},
  "data": [
    {"smiles": "COCCn1c(-c2cccs2)ncc(C(=O)C2=C(O)CCCC2=O)c1=O", "note": "[Compound 108]", "values": [
      {"measurement": "Plant response rating, Cocklebur", "setting": "[1]; [16]", "value": 75},
      {"measurement": "Cocklebur plant response rating (0 to 100 scale)", "setting": "[1]; [17]", "value": 95},
      {"measurement": "Plant response rating, Cocklebur", "setting": "[1]; [18]", "value": 100},
      {"measurement": "Plant response rating, Cocklebur", "setting": "[1]; [19]", "value": 100},
      {"measurement": "Plant response rating, Oat, Wild", "setting": "wild oat (Avena fatua); [16]", "value": 0},
      {"measurement": "Oat, Wild plant response rating (0 to 100 scale)", "setting": "wild oat (Avena fatua); [17]", "value": 0},
      {"measurement": "Plant response rating, Oat, Wild", "setting": "wild oat (Avena fatua); [18]", "value": 0},
      {"measurement": "Plant response rating, Oat, Wild", "setting": "wild oat (Avena fatua); [19]", "value": 0},
      {"measurement": "Plant response rating, Blackgrass", "setting": "[2]; [16]", "value": 0},
      {"measurement": "Blackgrass plant response rating (0 to 100 scale)", "setting": "[2]; [17]", "value": 5},
      {"measurement": "Plant response rating, Blackgrass", "setting": "[2]; [18]", "value": 20},
      {"measurement": "Plant response rating, Blackgrass", "setting": "[2]; [19]", "value": 30},
      {"measurement": "Plant response rating, Johnsongrass", "setting": "[3]; [16]", "value": 10},
      {"measurement": "Johnsongrass plant response rating (0 to 100 scale)", "setting": "[3]; [17]", "value": 20},
      {"measurement": "Plant response rating, Johnsongrass", "setting": "[3]; [18]", "value": 20},
      {"measurement": "Plant response rating, Johnsongrass", "setting": "[3]; [19]", "value": 60},
      {"measurement": "Plant response rating, Kochia", "setting": "kochia (Kochia scoparia); [16]", "value": 70},
      {"measurement": "Kochia plant response rating (0 to 100 scale)", "setting": "kochia (Kochia scoparia); [17]", "value": 95},
      {"measurement": "Plant response rating, Kochia", "setting": "kochia (Kochia scoparia); [18]", "value": 98},
      {"measurement": "Plant response rating, Kochia", "setting": "kochia (Kochia scoparia); [19]", "value": 100},
      {"measurement": "Plant response rating, Nutsedge, Yellow", "setting": "[4]; [16]", "value": 50},
      {"measurement": "Nutsedge, Yellow plant response rating (0 to 100 scale)", "setting": "[4]; [17]", "value": 75},
      {"measurement": "Plant response rating, Nutsedge, Yellow", "setting": "[4]; [18]", "value": 80},
      {"measurement": "Plant response rating, Nutsedge, Yellow", "setting": "[4]; [19]", "value": 85},
      {"measurement": "Ragweed plant response rating (0 to 100 scale)", "setting": "[5]; [17]", "value": 85},
      {"measurement": "Plant response rating, Ragweed", "setting": "[5]; 125 g ai/ha", "value": 95},
      {"measurement": "Plant response rating, Ragweed", "setting": "[5]; 250 g ai/ha", "value": 98},
      {"measurement": "Plant response rating, Bromegrass, Downy", "setting": "[6]; [16]", "value": 0},
      {"measurement": "Bromegrass, Downy plant response rating (0 to 100 scale)", "setting": "[6]; [17]", "value": 0},
      {"measurement": "Plant response rating, Bromegrass, Downy", "setting": "[6]; [18]", "value": 5},
      {"measurement": "Plant response rating, Bromegrass, Downy", "setting": "[6]; [19]", "value": 5},
      {"measurement": "Plant response rating, Morningglory", "setting": "[7]; [16]", "value": 75},
      {"measurement": "Morningglory plant response rating (0 to 100 scale)", "setting": "[7]; [17]", "value": 90},
      {"measurement": "Plant response rating, Morningglory", "setting": "[7]; [18]", "value": 100},
      {"measurement": "Plant response rating, Morningglory", "setting": "[7]; [19]", "value": 100},
      {"measurement": "Wheat plant response rating (0 to 100 scale)", "setting": "[8]; [17]", "value": 0},
      {"measurement": "Plant response rating, Wheat", "setting": "[8]; [18]", "value": 0},
      {"measurement": "Plant response rating, Bermudagrass", "setting": "[9]; [16]", "value": 85},
      {"measurement": "Bermudagrass plant response rating (0 to 100 scale)", "setting": "[9]; [17]", "value": 90},
      {"measurement": "Plant response rating, Bermudagrass", "setting": "[9]; [18]", "value": 100},
      {"measurement": "Plant response rating, Bermudagrass", "setting": "[9]; [19]", "value": 100},
      {"measurement": "Plant response rating, Foxtail, Giant", "setting": "[10]; [16]", "value": 45},
      {"measurement": "Foxtail, Giant plant response rating (0 to 100 scale)", "setting": "[10]; [17]", "value": 60},
      {"measurement": "Plant response rating, Foxtail, Giant", "setting": "[10]; [18]", "value": 75},
      {"measurement": "Plant response rating, Foxtail, Giant", "setting": "[10]; [19]", "value": 80},
      {"measurement": "Velvetleaf plant response rating (0 to 100 scale)", "setting": "[11]; [17]", "value": 100},
      {"measurement": "Plant response rating, Velvetleaf", "setting": "[11]; 125 g ai/ha", "value": 100},
      {"measurement": "Plant response rating, Velvetleaf", "setting": "[11]; 250 g ai/ha", "value": 100},
      {"measurement": "Soybean plant response rating (0 to 100 scale)", "setting": "soybean (Glycine max); [17]", "value": 55},
      {"measurement": "Plant response rating, Soybean", "setting": "soybean (Glycine max); 125 g ai/ha", "value": 65},
      {"measurement": "Plant response rating, Soybean", "setting": "soybean (Glycine max); 250 g ai/ha", "value": 85},
      {"measurement": "Plant response rating, Foxtail, Green", "setting": "[12]; [16]", "value": 5},
      {"measurement": "Foxtail, Green plant response rating (0 to 100 scale)", "setting": "[12]; [17]", "value": 30},
      {"measurement": "Plant response rating, Foxtail, Green", "setting": "[12]; [18]", "value": 80},
      {"measurement": "Plant response rating, Foxtail, Green", "setting": "[12]; [19]", "value": 80},
      {"measurement": "Plant response rating, Chickweed", "setting": "[13]; [16]", "value": 85},
      {"measurement": "Chickweed plant response rating (0 to 100 scale)", "setting": "[13]; [17]", "value": 100},
      {"measurement": "Plant response rating, Chickweed", "setting": "[13]; [18]", "value": 100},
      {"measurement": "Plant response rating, Chickweed", "setting": "[13]; [19]", "value": 100},
      {"measurement": "Windgrass plant response rating (0 to 100 scale)", "setting": "[14]; [17]", "value": 10},
      {"measurement": "Plant response rating, Windgrass", "setting": "[14]; [18]", "value": 30},
      {"measurement": "Plant response rating, Canarygrass", "setting": "[15]; [16]", "value": 0},
      {"measurement": "Canarygrass plant response rating (0 to 100 scale)", "setting": "[15]; [17]", "value": 5},
      {"measurement": "Plant response rating, Canarygrass", "setting": "[15]; [18]", "value": 5},
      {"measurement": "Plant response rating, Canarygrass", "setting": "[15]; [19]", "value": 5}
    ]}
  ]
}
